Results published in PubChem BioAssay AID1035470 (Broad Institute, 2014).
Results filed as inconclusive are left out. Active and inactive are the calls of the source.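 The calls were made as follows: active = compound lowering the normal-ribosome reporter at least twice as much as the humanized-ribosome reporter, growth loss under a set limit; inconclusive = no clear call, values can overlap the other calls; inactive = the rest.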

System: E. coli WT-GFP vs G2058-humanized RFP, fluorescence, 24 h
Assay: growth inhibition of wild-type GFP E. coli versus G2058-humanized strain, dose response, G2058 mutant RFP vs wild-type GFP, cherry-pick, two tests (AID 1035470)
[1] = measured here: G2058 humanized mutant RFP growth
[2] = E. coli WT-GFP vs G2058-humanized RFP mixed culture, total growth OD600, 24 h

| Compound | AC50 | AC50 [2] [µM] | further results |
| --- | --- | --- | --- |
| Cc1nnc2sc(SCC(=O)Nc3ccc(Br)cc3)nn2c1=O | > 100 µM (inactive) |  | AC50 [1]: > 100 µM |
| O=C(CSCc1cnn(-c2ccccc2)c1-n1cccc1)NCc1cccnc1 |  | > 100 |  |
| CN(C)CCCN(C(=O)CCOc1ccccc1)c1nc2c(F)cccc2s1 | > 100 µM (inactive) |  |  |
| CCn1c(SCC(=O)Nc2ccc(OC)cc2)nc2nc3c(cc2c1=O)CCCC3 |  | 47.7 |  |
| COc1cc2cc(C(=O)Nc3ccc4c(c3)OCCO4)[nH]c2cc1OC | > 100 µM (inactive) |  |  |
| O=C(C[n+]1cc(-c2ccc(Cl)c(Cl)c2)n2c1CCC2)OCc1ccccc1 | > 100 µM (inactive) | > 100 |  |
| CCOC(=O)c1cc(-c2ccc(OC)cc2)n[nH]1 | > 100 µM (inactive) |  |  |
| CCCNC(=O)c1cc(C2CCCN(S(=O)(=O)c3cccc4cccnc34)C2)on1 (stereo not drawn) | > 100 µM (inactive) |  |  |
| CN(C)S(=O)(=O)c1cccc(C(=O)Nc2ccc(C(=O)Nc3cccc(S(N)(=O)=O)c3)cc2)c1 | > 100 µM (inactive) |  |  |
| CC(=O)Nc1ccc(OCc2nnc(-c3ccccc3)o2)cc1 | > 100 µM (inactive) | > 100 |  |
| O=C(COC(=O)CNC(=O)c1ccc(F)cc1)Nc1cccc(S(=O)(=O)N2CCCC2)c1 |  | > 100 |  |
| COc1ccc(C(CC(=O)c2ccc(O)cc2)S(=O)(=O)c2ccc(C)cc2)cc1 (stereo not drawn) | > 100 µM (inactive) |  |  |
| COc1cc2c(c(OC)c1OC)C(c1ccc3c(c1)OCO3)CC(=O)O2 (stereo not drawn) | > 100 µM (inactive) | > 100 |  |
| O=C(NCc1ccccc1Cl)c1ccc2c(c1)SC1=NS(=O)(=O)CCN12 | > 100 µM (inactive) | > 100 |  |
| COc1ccc2c(c1)c1ncn(Cc3ccccn3)c(=O)c1n2C | > 100 µM (inactive) | > 100 |  |
| Cc1cccc(-c2ccc([C@@H]3[C@@H](CO)N4CCCCN(S(=O)(=O)c5ccccc5C)C[C@@H]34)cc2)c1 |  | > 100 |  |
| CC(C)(C)c1ccc(-c2noc(CCC(=O)NCc3ccco3)n2)cc1 | > 100 µM (inactive) | > 100 | AC50 [1]: > 100 µM |
| O=C(O)c1ccc(Oc2ccc([N+](=O)[O-])cc2)c([N+](=O)[O-])c1 | > 100 µM (inactive) |  |  |
| COc1ccc(C(=O)N(c2ccccc2)c2nccc3ccccc23)cc1OC | > 100 µM (inactive) |  |  |
| Cc1ccc(C(=O)Nc2ccc3ncccc3c2)cc1 | > 100 µM (inactive) |  |  |
| CN1CCN(c2nc(Nc3ccc(O)cc3)nc3ccccc23)CC1 | > 100 µM (inactive) | > 100 |  |
| CC1CCC2(CC1)SCC(=O)N2c1ccc(F)cc1 (stereo not drawn) | > 100 µM (inactive) | > 100 | AC50 [1]: 35.3 µM |

| Compound | AC50 | AC50 [2] [µM] | further results |
| --- | --- | --- | --- |
| CCCCCCC(=O)N1CCCC(c2nc(-c3cccc(OC)c3)no2)C1 (stereo not drawn) | > 100 µM (inactive) |  | AC50 [1]: > 100 µM |
| Fc1ccc(-c2nc3ccc(Cl)cn3c2Cc2cccc(Cl)c2)cc1 |  | > 100 |  |
| O=[N+]([O-])c1cncc([N+](=O)[O-])c1Nc1cccc(O)c1 | > 100 µM (inactive) | > 100 |  |
| CC(=O)Nc1nc(C)c(-c2csc(Nc3ccccn3)n2)s1 | > 100 µM (inactive) |  |  |
| COc1cccc(C(=O)Nc2nnc(S(=O)(=O)N(C)Cc3ccccc3)s2)c1 | > 100 µM (inactive) | > 100 |  |
| Cc1cc(C)nc(SCc2cn3c(C)cccc3n2)n1 | > 100 µM (inactive) | > 100 |  |
| CCOc1ccccc1C(=O)OCC(=O)NCCc1ccc(OC)cc1 | > 100 µM (inactive) | 50.9 |  |
| N#Cc1ccc(OCC(=O)N2CCN(S(=O)(=O)c3ccc(Cl)s3)CC2)cc1 | > 100 µM (inactive) |  |  |
| CCOc1ccc2nc(SCC(=O)Nc3nonc3C)[nH]c2c1 | > 100 µM (inactive) |  |  |
| O=C(NC1CCCC(C(F)(F)F)C1)c1ccc([N+](=O)[O-])o1 (stereo not drawn) | > 100 µM (inactive) |  |  |
| Cc1cccc(-c2ccc([C@H]3[C@@H](CO)N4CCCCN(S(=O)(=O)c5ccccc5C)C[C@H]34)cc2)c1 |  | > 100 |  |
| CN(C)CCNc1ncnc2c1sc1nc(N3CCCC3)c3c(c12)CC(C)(C)OC3 | > 100 µM (inactive) | > 100 |  |
| Cc1cccc(OCCC(=O)Nc2ccc(F)c(F)c2)c1 | > 100 µM (inactive) |  |  |
| Cc1cccc(SCC(=O)Nc2ccccc2[N+](=O)[O-])c1 | > 100 µM (inactive) | > 100 |  |
| Cc1nc(SCC(=O)Nc2ccc3c(c2)OCCO3)nc(C)c1C | > 100 µM (inactive) | 46.5 |  |
| O=C(O)CC(CC(=O)Nc1ccc(Oc2ccccc2)cc1)c1ccccc1 (stereo not drawn) | > 100 µM (inactive) |  |  |
| CC(=O)N1CCN(c2nc(-c3cccs3)nc3ccccc23)CC1 | > 100 µM (inactive) |  |  |
| COc1cc(OC)c(NS(=O)(=O)c2cccc(C(=O)OCC(=O)NCC3CCCO3)c2)cc1Cl (stereo not drawn) |  | > 100 |  |
| C[C@@H]1CN([C@@H](C)CO)C(=O)c2cc(NC(=O)Nc3cccc4ccccc34)ccc2O[C@@H](C)CCCCO[C@H]1CN(C)C(=O)CCCN(C)C | > 100 µM (inactive) |  |  |
| CCOC(=O)Cc1nnc(NC(=O)CSc2nc3ccccc3[nH]2)s1 | > 100 µM (inactive) |  |  |
| Cc1ccc(NC(=O)c2ccc([N+](=O)[O-])s2)cc1S(=O)(=O)N1CCOCC1 | > 100 µM (inactive) | > 100 |  |
| O=C1c2cccc3cccc(c23)C(=O)N1c1ccccc1Cl | > 100 µM (inactive) |  |  |

| Compound | AC50 | AC50 [2] [µM] | further results |
| --- | --- | --- | --- |
| O=C1c2ccccc2C(c2nnnn2C2CCCCC2)N1CCc1ccc(O)cc1 (stereo not drawn) | > 100 µM (inactive) |  |  |
| COc1ccc(CN2CCC3CC2c2cc(Cl)ccc23)cc1 (stereo not drawn) | > 100 µM (inactive) |  |  |
| CN(C)S(=O)(=O)N1CCN(c2ccccc2Cl)CC1 | > 100 µM (inactive) | > 100 |  |
| COC(=O)c1ccc(C(=O)Nc2ccc3nc(-c4ccncc4)[nH]c3c2)cc1 | > 100 µM (inactive) | > 100 |  |
| Cc1ccc2nc(-c3ccc(Cl)cc3)c(Cc3ccccc3C(F)(F)F)n2c1 |  | > 100 |  |
| COC(=O)c1ccc(CCc2cc(O)c(Br)cc2O)cc1 |  | > 100 |  |
| COc1ccc(CNc2ncnc3cc(OC)c(OC)cc23)cc1OC | > 100 µM (inactive) | > 100 |  |
| CC(C)(C)S(=O)(=O)Cc1nc(-c2ccc(Cl)c(Cl)c2)cs1 |  |  | AC50 [1]: 38.5 µM |
| CCC(=O)Nc1nc2c(OC)ccc(OC)c2s1 | > 100 µM (inactive) |  |  |
| CC(C)Nc1nnc(SCC(=O)Nc2sccc2C#N)s1 | > 100 µM (inactive) |  |  |
| CN(CC(=O)Nc1ccc(F)cc1)C(=O)COc1ccc([N+](=O)[O-])cc1Cl | > 100 µM (inactive) | > 100 |  |
| Cn1nc(C(C)(C)C)c([N+](=O)[O-])c1C(=O)Nc1ccc(Br)cc1 | > 100 µM (inactive) |  |  |
| CCN(CC)CC(=O)Nc1sc2c(c1C(=O)c1ccccc1OC)CCC2 | > 100 µM (inactive) |  |  |
| CCOC(=O)c1c(C)[nH]c(C)c1S(=O)(=O)NCCN1CCN(c2ccccc2F)CC1 | > 100 µM (inactive) | > 100 |  |
| COc1cc2[nH]c(=S)nc(NCCc3ccc(C)cc3)c2cc1OC | > 100 µM (inactive) |  |  |
| Cc1ccc(C)c(-c2[nH]ncc2CN2CCCC(CO)(Cc3ccccc3C)C2)c1 (stereo not drawn) | > 100 µM (inactive) | > 100 |  |
| COc1ccc2cc(CO)c3cc(OC)c(OC)cc3c2c1 |  | > 100 | AC50 [1]: > 100 µM |
| CCn1ccnc1CN1CCCC(C(=O)c2ccc3cc(OC)ccc3c2)C1 (stereo not drawn) | > 100 µM (inactive) | > 100 |  |
| Cc1ncoc1C(=O)NCCC(c1ccccc1)c1ccccc1 | > 100 µM (inactive) |  |  |
| O=C(O)CC1(CC(=O)Nc2ccc3sccc3c2)CCCCC1 | > 100 µM (inactive) |  |  |
| O=C(NCCO)c1cc2c([nH]c3ccccc32)c(-c2ccccc2)n1 | > 100 µM (inactive) | > 100 | AC50 [1]: > 100 µM |
| CCOC(=O)c1ccc(NC(=O)COc2ccc(CNCCO)cc2OCC)cc1 | > 100 µM (inactive) |  |  |

| Compound | AC50 | AC50 [2] [µM] | further results |
| --- | --- | --- | --- |
| CC(=O)c1c(C)nn(CC(O)COc2ccc3c(c2)CCC3)c1C (stereo not drawn) | > 100 µM (inactive) |  |  |
| CCOC(=O)c1c(NC(=O)CN2CCC(C)CC2)sc(C)c1C | > 100 µM (inactive) |  |  |
| O=C(NCc1ccccc1Cl)[C@H]1CCCN1C(=O)[C@H]1CCCN1C(=O)c1cccc2ccccc12 | > 100 µM (inactive) | > 100 |  |
| CS(=O)(=O)c1ccc(C(=O)Nc2nc(-c3ccco3)c(-c3ccco3)s2)cc1 | > 100 µM (inactive) | > 100 | AC50 [1]: > 100 µM |
| Cc1nc(N2CCC(C)CC2)c(C#N)c(C)c1[N+](=O)[O-] | > 100 µM (inactive) |  |  |
| O=C(O)c1cc(-c2ccc(Cl)s2)nc2ccccc12 | > 100 µM (inactive) |  |  |
| O=C1c2ccccc2C(c2nnnn2Cc2ccccc2)N1Cc1cccc(F)c1 (stereo not drawn) |  | > 100 |  |
| COc1ccc(CNc2cc([N+](=O)[O-])ccc2OC)cc1 | > 100 µM (inactive) | > 100 | AC50 [1]: > 100 µM |
| O=C1c2ccccc2CSc2c(O)cccc21 | > 100 µM (inactive) |  |  |
| CC(C(=O)Nc1nc2ccccc2s1)n1cc([N+](=O)[O-])cn1 (stereo not drawn) | > 100 µM (inactive) | > 100 | AC50 [1]: > 100 µM |
| COc1ccc(-c2cn3c(C)c(C(=O)Nc4cccc(C)n4)sc3n2)cc1 | > 100 µM (inactive) | > 100 |  |
| COc1ccc(NC(=O)c2ccc(-c3ccc([N+](=O)[O-])cc3)o2)cc1 | 9.28 µM |  | AC50 (E. coli WT-GFP vs G2058-humanized RFP mixed culture, OD600 growth, 24 h, test 1): > 100 µM; AC50 (measured here: wild-type GFP, test 1): 4.75 µM |
| CCN(CC(=O)Nc1ccccc1OC)CC(=O)Nc1c(Cl)ccc(C)c1Cl | > 100 µM (inactive) | > 100 |  |
| O=C(Nc1ccc2c(c1)OCO2)c1ccc([N+](=O)[O-])cc1[N+](=O)[O-] | > 100 µM (inactive) |  |  |
| Fc1cccc(CCN2C(=S)NC[C@@H]2CC2CCCCC2)c1 | > 100 µM (inactive) |  |  |
| CCOc1cc(/C=C(\CC(=O)O)c2nc3ccccc3s2)ccc1OC | > 100 µM (inactive) |  |  |
| O=C(NCc1ccco1)c1ccc(COc2cccc3ccccc23)cc1 | > 100 µM (inactive) | > 100 |  |
| COc1cccc(NC(=O)CSc2nc3c(sc4ccccc43)c(=O)n2CCN(C)C)c1 | > 100 µM (inactive) |  |  |
| COc1cc(NC(=O)c2ccc(Cl)cc2)c(OC)cc1NC(=O)CN1CCCCC1 |  | > 100 |  |
| Cn1ccc2cc(-c3ccc4ncnc(NCc5cccs5)c4c3)ccc21 |  | > 100 |  |
